Results from ChEMBL document CHEMBL3217756, “Biological and computational evaluation of an oxadiazole derivative (MD77) as a new lead for direct STAT3 inhibitors” (Medchemcomm, 2012).

Tests used:
[1] = target: Growth factor receptor-bound protein 2 (Homo sapiens, UniProt P62993); experiment: Inhibition of SH2 domain of GRB2 (unknown origin) using FITC-PSpYVNVQN as substrate at 30 uM preincubated for 15 mins before substrate addition measured after 90 mins by alphascreen based assay
[2] = target: Signal transducer and activator of transcription 1-alpha/beta (Homo sapiens, UniProt P42224); experiment: Inhibition of SH2 domain of STAT1 (unknown origin) using FITC-GpYDKPHVL as substrate preincubated for 15 mins before substrate addition measured after 90 mins by alphascreen based assay
Signal transducer and activator of transcription 1-alpha/beta, sequence (P42224 whole entry, the tested form may be a part): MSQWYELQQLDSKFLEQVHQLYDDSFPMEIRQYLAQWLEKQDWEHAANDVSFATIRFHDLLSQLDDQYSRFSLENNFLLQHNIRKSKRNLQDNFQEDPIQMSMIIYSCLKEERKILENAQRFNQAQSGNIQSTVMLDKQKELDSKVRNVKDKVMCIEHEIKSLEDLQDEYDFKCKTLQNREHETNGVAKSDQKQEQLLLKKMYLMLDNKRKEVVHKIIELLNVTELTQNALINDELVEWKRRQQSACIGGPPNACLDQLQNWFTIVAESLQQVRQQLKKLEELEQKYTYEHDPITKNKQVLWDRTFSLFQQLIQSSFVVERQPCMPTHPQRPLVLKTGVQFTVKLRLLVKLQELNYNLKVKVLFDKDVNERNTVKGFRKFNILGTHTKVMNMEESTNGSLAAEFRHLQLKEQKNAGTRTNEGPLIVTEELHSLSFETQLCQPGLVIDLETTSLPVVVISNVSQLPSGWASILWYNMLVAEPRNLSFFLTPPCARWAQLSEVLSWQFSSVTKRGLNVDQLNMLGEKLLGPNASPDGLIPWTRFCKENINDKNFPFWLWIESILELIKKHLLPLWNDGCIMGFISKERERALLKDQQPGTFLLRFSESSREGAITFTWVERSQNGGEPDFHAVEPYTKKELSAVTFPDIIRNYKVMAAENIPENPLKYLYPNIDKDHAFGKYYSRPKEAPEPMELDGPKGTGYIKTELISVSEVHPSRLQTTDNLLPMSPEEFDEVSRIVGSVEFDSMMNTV

HL-60(TB) = experiment: Cytotoxicity against human HL-60(TB) cells after 48 hrs by sulforhodamine B assay; type: functional; conditions: HL-60, 48 h
A549 = experiment: Cytotoxicity against human A549 cells after 48 hrs by sulforhodamine B assay; type: functional; conditions: A549, 48 h
HOP-62 = experiment: Cytotoxicity against human HOP62 cells after 48 hrs by sulforhodamine B assay; type: functional; conditions: HOP-62, 48 h
HOP-92 = experiment: Cytotoxicity against human HOP92 cells after 48 hrs by sulforhodamine B assay; type: functional; conditions: HOP-92, 48 h
NCI-H226 = experiment: Cytotoxicity against human NCI-H226 cells after 48 hrs by sulforhodamine B assay; type: functional; conditions: NCI-H226, 48 h
NCI-H23 = experiment: Cytotoxicity against human NCI-H23 cells after 48 hrs by sulforhodamine B assay; type: functional; conditions: NCI-H23, 48 h
NCI-H322M = experiment: Cytotoxicity against human NCI-H322M cells after 48 hrs by sulforhodamine B assay; type: functional
LOX IMVI = experiment: Cytotoxicity against human LOXIMVI cells after 48 hrs by sulforhodamine B assay; type: functional
Malme-3M = experiment: Cytotoxicity against human MALME-3M cells after 48 hrs by sulforhodamine B assay; type: functional
[3] = Cytotoxicity against human UACC62 cells after 48 hrs by sulforhodamine B assay; type: functional; conditions: UACC-62, 48 h
[4] = Cytotoxicity against human OVCAR4 cells after 48 hrs by sulforhodamine B assay; type: functional; conditions: OVCAR-4, 48 h
[5] = Cytotoxicity against human OVCAR5 cells after 48 hrs by sulforhodamine B assay; type: functional; conditions: OVCAR-5, 48 h
786-0 = experiment: Cytotoxicity against human 786-0 cells after 48 hrs by sulforhodamine B assay; type: functional; conditions: 786-0, 48 h
ACHN = experiment: Cytotoxicity against human ACHN cells after 48 hrs by sulforhodamine B assay; type: functional
TK-10 = experiment: Cytotoxicity against human TK10 cells after 48 hrs by sulforhodamine B assay; type: functional; conditions: TK-10, 48 h
[6] = Cytotoxicity against human UO31 cells after 48 hrs by sulforhodamine B assay; type: functional; conditions: UO-31, 48 h
[7] = Cytotoxicity against human Hs 578T cells after 48 hrs by sulforhodamine B assay; type: functional
BT-549 = experiment: Cytotoxicity against human BT549 cells after 48 hrs by sulforhodamine B assay; type: functional; conditions: BT-549, 48 h
MDA-MB-468 = experiment: Cytotoxicity against human MDA-MB-468 cells after 48 hrs by sulforhodamine B assay; type: functional; conditions: MDA-MB-468, 48 h
[8] = read-out: LC50 (the source's name)
[9] = read-out: pLC50 (the source's name) (converted)

Growth factor receptor-bound protein 2, sequence (P62993 whole entry, looked up, the tested form may be a part): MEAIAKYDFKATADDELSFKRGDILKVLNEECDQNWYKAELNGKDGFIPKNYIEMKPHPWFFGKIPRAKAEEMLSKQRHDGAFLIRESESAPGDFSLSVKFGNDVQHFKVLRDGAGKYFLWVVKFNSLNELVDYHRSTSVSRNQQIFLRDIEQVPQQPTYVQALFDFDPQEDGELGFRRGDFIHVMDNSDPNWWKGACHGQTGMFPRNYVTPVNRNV

O=C(Nc1nonc1-c1ccc(Cl)cc1)c1ccc(C(F)(F)F)cc1
inhibition [1]: 10.5% | IC50 [2]: 7.2 µM | GI50 (HL-60(TB); read-out: GI50): 0.546 µM | CC50 (HL-60(TB); [8]): > 100 µM | TGI (HL-60(TB); read-out: TGI): 2.85 µM | GI50 (HL-60(TB); read-out: pGI50 (converted)): 0.55 µM | CC50 (HL-60(TB); [9]): > 100 µM | TGI (HL-60(TB); read-out: pTGI (converted)): 2.88 µM | GI50 (A549; read-out: GI50): 2.53 µM | CC50 (A549; [8]): > 100 µM | TGI (A549; read-out: TGI): > 100 µM | GI50 (A549; read-out: pGI50 (converted)): 2.51 µM | CC50 (A549; [9]): > 100 µM | TGI (A549; read-out: pTGI): > 100 µM | GI50 (HOP-62; read-out: GI50): 2.93 µM | CC50 (HOP-62; [8]): > 100 µM | TGI (HOP-62; read-out: TGI): 8.74 µM | GI50 (HOP-62; read-out: pGI50 (converted)): 2.95 µM | CC50 (HOP-62; [9]): > 100 µM | TGI (HOP-62; read-out: pTGI (converted)): 8.71 µM | GI50 (HOP-92; read-out: GI50): 0.668 µM | CC50 (HOP-92; [8]): > 100 µM | TGI (HOP-92; read-out: TGI): 3.96 µM | GI50 (HOP-92; read-out: pGI50 (converted)): 0.661 µM | CC50 (HOP-92; [9]): > 100 µM | TGI (HOP-92; read-out: pTGI (converted)): 3.98 µM | GI50 (NCI-H226; read-out: GI50): 2.48 µM | CC50 (NCI-H226; [8]): > 100 µM | TGI (NCI-H226; read-out: TGI): 7.85 µM | GI50 (NCI-H226; read-out: pGI50 (converted)): 2.45 µM | CC50 (NCI-H226; [9]): > 100 µM | TGI (NCI-H226; read-out: pTGI (converted)): 7.76 µM | GI50 (NCI-H23; read-out: GI50): 1.89 µM | CC50 (NCI-H23; [8]): > 100 µM | TGI (NCI-H23; read-out: TGI): 7.94 µM | GI50 (NCI-H23; read-out: pGI50 (converted)): 1.91 µM | CC50 (NCI-H23; [9]): > 100 µM | TGI (NCI-H23; read-out: pTGI (converted)): 7.94 µM | GI50 (NCI-H322M; read-out: GI50): 1.78 µM | CC50 (NCI-H322M; [8]): > 100 µM | TGI (NCI-H322M; read-out: TGI): > 100 µM | GI50 (NCI-H322M; read-out: pGI50 (converted)): 1.78 µM | CC50 (NCI-H322M; [9]): > 100 µM | TGI (NCI-H322M; read-out: pTGI): > 100 µM | GI50 (LOX IMVI; read-out: GI50): 0.872 µM | LC50 (LOX IMVI; read-out: LC50): > 100 µM | TGI (LOX IMVI; read-out: TGI): 57 µM | GI50 (LOX IMVI; read-out: pGI50 (converted)): 0.871 µM | LC50 (LOX IMVI; read-out: pLC50 (converted)): > 100 µM | TGI (LOX IMVI; read-out: pTGI (converted)): 57.5 µM | GI50 (Malme-3M; read-out: GI50): 1.52 µM | LC50 (Malme-3M; read-out: LC50): > 100 µM | TGI (Malme-3M; read-out: TGI): 21.8 µM | GI50 (Malme-3M; read-out: pGI50 (converted)): 1.51 µM | LC50 (Malme-3M; read-out: pLC50 (converted)): > 100 µM | TGI (Malme-3M; read-out: pTGI (converted)): 21.9 µM | GI50 ([3]; read-out: GI50): 2.11 µM | CC50 [3, 8]: > 100 µM | TGI ([3]; read-out: TGI): 6.83 µM | GI50 ([3]; read-out: pGI50 (converted)): 2.09 µM | CC50 [3, 9]: > 100 µM | TGI ([3]; read-out: pTGI (converted)): 6.76 µM | GI50 ([4]; read-out: GI50): 1.83 µM | TGI ([4]; read-out: TGI): 4.21 µM | GI50 ([4]; read-out: pGI50 (converted)): 1.82 µM | TGI ([4]; read-out: pTGI (converted)): 4.17 µM | GI50 ([5]; read-out: GI50): 3.98 µM | LC50 ([5]; read-out: LC50): > 100 µM | TGI ([5]; read-out: TGI): 96.3 µM | GI50 ([5]; read-out: pGI50 (converted)): 3.98 µM | LC50 ([5]; read-out: pLC50 (converted)): > 100 µM | TGI ([5]; read-out: pTGI (converted)): 95.5 µM | GI50 (786-0; read-out: GI50): 1.98 µM | LC50 (786-0; read-out: LC50): > 100 µM | TGI (786-0; read-out: TGI): 5.19 µM | GI50 (786-0; read-out: pGI50 (converted)): 2 µM | LC50 (786-0; read-out: pLC50 (converted)): > 100 µM | TGI (786-0; read-out: pTGI): 5.25 µM | GI50 (ACHN; read-out: GI50): 3.1 µM | CC50 (ACHN; [8]): > 100 µM | TGI (ACHN; read-out: TGI): 8.74 µM | GI50 (ACHN; read-out: pGI50 (converted)): 3.09 µM | CC50 (ACHN; [9]): > 100 µM | TGI (ACHN; read-out: pTGI (converted)): 8.71 µM | GI50 (TK-10; read-out: GI50): 6.75 µM | CC50 (TK-10; [8]): > 100 µM | TGI (TK-10; read-out: TGI): > 100 µM | GI50 (TK-10; read-out: pGI50 (converted)): 6.76 µM | CC50 (TK-10; [9]): > 100 µM | TGI (TK-10; read-out: pTGI): > 100 µM | GI50 ([6]; read-out: GI50): 2.37 µM | CC50 [6, 8]: > 100 µM | TGI ([6]; read-out: TGI): > 100 µM | GI50 ([6]; read-out: pGI50 (converted)): 2.34 µM | CC50 [6, 9]: > 100 µM | TGI ([6]; read-out: pTGI): > 100 µM | GI50 ([7]; read-out: GI50): 2.53 µM | CC50 [7, 8]: > 100 µM | TGI ([7]; read-out: TGI): > 100 µM | GI50 ([7]; read-out: pGI50 (converted)): 2.51 µM | CC50 [7, 9]: > 100 µM | TGI ([7]; read-out: pTGI): > 100 µM | GI50 (BT-549; read-out: GI50): 2.22 µM | CC50 (BT-549; [8]): > 100 µM | TGI (BT-549; read-out: TGI): 7.66 µM | GI50 (BT-549; read-out: pGI50 (converted)): 2.24 µM | CC50 (BT-549; [9]): > 100 µM | TGI (BT-549; read-out: pTGI (converted)): 7.59 µM | GI50 (MDA-MB-468; read-out: GI50): 3.36 µM | LC50 (MDA-MB-468; read-out: LC50): > 100 µM | TGI (MDA-MB-468; read-out: TGI): 27 µM | GI50 (MDA-MB-468; read-out: pGI50 (converted)): 3.39 µM | LC50 (MDA-MB-468; read-out: pLC50 (converted)): > 100 µM | TGI (MDA-MB-468; read-out: pTGI (converted)): 26.9 µM
